Data reported in patent US10617119B1, “Piscicide composition” (priority 2018, dated 2020).

System: Koi
Assay: Feeding of toxic pellets to Koi in aquatic tanks (consumption, mortality)
Assay type: in vivo
Conditions: juvenile Koi

| SMILES | mortality / toxicity |
| --- | --- |
| CC(=O)Nc1ccc(O)cc1 [acetaminophen] | None of the Koi died |
| [O]=[Ca] [calcium oxide] | did not kill Koi |
